Experimental data reported in patent US20250223300A1, “MACROCYCLIC COMPOUND AND PHARMACEUTICAL COMPOSITION AND USE THEREOF” (BETTA PHARMACEUTICALS CO., LTD, priority 2022, published 2025).

Tests used:
Assay type in all cases: cell-based
[1] = test system: A431 cell carrying EGFR WT; experiment: Cell proliferation inhibitory activity assay, A431; details: Homo sapiens, A-431; cell proliferation inhibition, 72 hours, luminescence
Method: (§1) Suspension cells Ba/F3 (EGFR. Dell9/T790M/C797S), Ba/F3 (EGFR L858R/T790M/C797S), Ba/F3 (EGFR Del19/C797S), and Ba/F3 (EGFR L858R/C797S) overexpressing different EGFR mutations were cultured in PRMI 1640 containing 10% FBS and 1% PS, and adherent cells A431 carrying EGFR WT were cultured in DMEM containing 10% FBS and 1% PS. The experimental steps for compound activity detection are as follows: • (1) Take adherent cells in the logarithmic growth phase, digest them with trypsin count them, and then inoculate them into a 96-well plate at a certain density. Incubate them overnight at 37° C. and 5% CO2 to allow them to adhere.
(§2) Y=minimum+([…])/(1+10^((Log IC50−X)*slope)); • X: logarithm of compound concentration; Y: cell survival inhibition rate.

[2] = target: Ba/F3 (EGFR L858R/C797S) (Homo sapiens, UniProt P00533, C797S/L858R, cells depend on it); experiment: Cell proliferation inhibitory activity assay, Ba/F3 EGFR L858R/C797S; details: cell proliferation inhibition, 72 hours, luminescence; read-out: Ba/F3 cells overexpressing different EGFR mutations IC50 (nM) L858R/C797S
Sequence of Ba/F3 (EGFR L858R/C797S) (P00533 whole entry C797S/L858R): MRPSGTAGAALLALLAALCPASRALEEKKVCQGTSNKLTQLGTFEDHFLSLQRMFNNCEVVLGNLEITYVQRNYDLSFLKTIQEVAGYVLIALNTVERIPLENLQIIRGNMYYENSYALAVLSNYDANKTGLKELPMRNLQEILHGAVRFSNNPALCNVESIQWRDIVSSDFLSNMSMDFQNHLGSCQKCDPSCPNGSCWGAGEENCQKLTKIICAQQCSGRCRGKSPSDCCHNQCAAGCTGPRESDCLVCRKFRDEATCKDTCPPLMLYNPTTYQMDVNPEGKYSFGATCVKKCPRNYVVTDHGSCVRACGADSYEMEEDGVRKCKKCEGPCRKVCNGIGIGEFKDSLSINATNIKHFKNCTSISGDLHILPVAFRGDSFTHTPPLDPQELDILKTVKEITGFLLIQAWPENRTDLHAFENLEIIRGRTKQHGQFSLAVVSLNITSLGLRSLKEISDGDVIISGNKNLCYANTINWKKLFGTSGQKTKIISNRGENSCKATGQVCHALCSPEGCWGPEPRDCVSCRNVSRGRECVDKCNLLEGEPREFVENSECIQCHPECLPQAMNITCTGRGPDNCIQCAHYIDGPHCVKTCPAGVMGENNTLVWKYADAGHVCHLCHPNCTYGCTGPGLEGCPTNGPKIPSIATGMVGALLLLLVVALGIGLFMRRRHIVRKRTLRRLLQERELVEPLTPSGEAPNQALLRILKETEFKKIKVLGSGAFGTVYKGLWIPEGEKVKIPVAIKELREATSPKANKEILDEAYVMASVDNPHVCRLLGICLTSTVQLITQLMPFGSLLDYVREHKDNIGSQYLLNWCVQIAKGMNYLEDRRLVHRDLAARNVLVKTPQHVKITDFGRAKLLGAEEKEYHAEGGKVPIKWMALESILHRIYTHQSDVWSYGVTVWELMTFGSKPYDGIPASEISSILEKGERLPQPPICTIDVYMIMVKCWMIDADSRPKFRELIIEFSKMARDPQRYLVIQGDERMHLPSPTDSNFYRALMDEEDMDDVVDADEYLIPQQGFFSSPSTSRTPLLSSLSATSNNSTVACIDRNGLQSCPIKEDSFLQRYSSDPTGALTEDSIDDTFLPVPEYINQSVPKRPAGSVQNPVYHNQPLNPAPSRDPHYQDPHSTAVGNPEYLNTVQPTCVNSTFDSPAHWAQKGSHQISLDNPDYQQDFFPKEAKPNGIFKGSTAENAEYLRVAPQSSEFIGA
Method: as §1, §2

[3] = target: Ba/F3 (EGFR L858R/T790M/C797S) (Homo sapiens, UniProt P00533, T790M/C797S/L858R, cells depend on it); experiment: Cell proliferation inhibitory activity assay, Ba/F3 EGFR L858R/T790M/C797S; details: cell proliferation inhibition, 72 hours, luminescence; read-out: Ba/F3 cells overexpressing different EGFR mutations IC50 (nM) L858R/T790M/C797S
Sequence of Ba/F3 (EGFR L858R/T790M/C797S) (P00533 whole entry T790M/C797S/L858R): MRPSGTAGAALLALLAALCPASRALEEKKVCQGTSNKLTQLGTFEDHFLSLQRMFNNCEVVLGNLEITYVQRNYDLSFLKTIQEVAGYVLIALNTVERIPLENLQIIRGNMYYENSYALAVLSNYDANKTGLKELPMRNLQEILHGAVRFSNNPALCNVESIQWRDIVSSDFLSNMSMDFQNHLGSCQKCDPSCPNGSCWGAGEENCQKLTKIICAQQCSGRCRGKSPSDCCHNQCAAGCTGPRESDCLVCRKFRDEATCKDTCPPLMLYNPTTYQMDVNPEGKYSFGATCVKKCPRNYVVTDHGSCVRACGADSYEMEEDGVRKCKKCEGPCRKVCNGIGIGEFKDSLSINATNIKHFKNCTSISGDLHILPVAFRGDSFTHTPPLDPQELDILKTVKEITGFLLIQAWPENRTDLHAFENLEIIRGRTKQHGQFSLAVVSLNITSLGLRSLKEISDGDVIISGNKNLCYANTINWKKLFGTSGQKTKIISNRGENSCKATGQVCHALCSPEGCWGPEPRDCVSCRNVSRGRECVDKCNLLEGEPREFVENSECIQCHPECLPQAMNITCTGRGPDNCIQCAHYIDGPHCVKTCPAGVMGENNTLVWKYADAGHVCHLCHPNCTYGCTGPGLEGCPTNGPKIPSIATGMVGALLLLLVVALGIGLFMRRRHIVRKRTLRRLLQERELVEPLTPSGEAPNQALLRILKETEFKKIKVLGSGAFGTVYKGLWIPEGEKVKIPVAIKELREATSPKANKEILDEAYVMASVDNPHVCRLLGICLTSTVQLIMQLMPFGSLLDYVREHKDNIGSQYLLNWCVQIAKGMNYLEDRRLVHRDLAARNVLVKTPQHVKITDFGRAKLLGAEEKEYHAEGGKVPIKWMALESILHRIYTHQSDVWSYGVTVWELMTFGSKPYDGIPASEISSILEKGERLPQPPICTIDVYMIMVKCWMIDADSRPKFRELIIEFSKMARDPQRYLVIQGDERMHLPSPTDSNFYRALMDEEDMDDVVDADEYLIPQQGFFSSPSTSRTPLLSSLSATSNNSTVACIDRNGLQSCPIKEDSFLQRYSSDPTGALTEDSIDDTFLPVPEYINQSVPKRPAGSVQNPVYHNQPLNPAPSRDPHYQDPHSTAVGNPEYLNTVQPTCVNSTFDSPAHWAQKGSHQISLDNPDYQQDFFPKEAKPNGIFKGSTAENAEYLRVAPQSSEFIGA
Method: as §1, §2

[4] = target: Ba/F3 (EGFR Del19/C797S) (Homo sapiens, UniProt P00533, C797S, cells depend on it, form not given); experiment: Cell proliferation inhibitory activity assay, Ba/F3 EGFR Del19/C797S; details: cell proliferation inhibition, 72 hours, luminescence; read-out: Ba/F3 cells overexpressing different EGFR mutations IC50 (nM) Del19/C797S
Sequence of Ba/F3 (EGFR Del19/C797S) (P00533 with tags, fused parts or gaps DEL746-750/C797S, form open): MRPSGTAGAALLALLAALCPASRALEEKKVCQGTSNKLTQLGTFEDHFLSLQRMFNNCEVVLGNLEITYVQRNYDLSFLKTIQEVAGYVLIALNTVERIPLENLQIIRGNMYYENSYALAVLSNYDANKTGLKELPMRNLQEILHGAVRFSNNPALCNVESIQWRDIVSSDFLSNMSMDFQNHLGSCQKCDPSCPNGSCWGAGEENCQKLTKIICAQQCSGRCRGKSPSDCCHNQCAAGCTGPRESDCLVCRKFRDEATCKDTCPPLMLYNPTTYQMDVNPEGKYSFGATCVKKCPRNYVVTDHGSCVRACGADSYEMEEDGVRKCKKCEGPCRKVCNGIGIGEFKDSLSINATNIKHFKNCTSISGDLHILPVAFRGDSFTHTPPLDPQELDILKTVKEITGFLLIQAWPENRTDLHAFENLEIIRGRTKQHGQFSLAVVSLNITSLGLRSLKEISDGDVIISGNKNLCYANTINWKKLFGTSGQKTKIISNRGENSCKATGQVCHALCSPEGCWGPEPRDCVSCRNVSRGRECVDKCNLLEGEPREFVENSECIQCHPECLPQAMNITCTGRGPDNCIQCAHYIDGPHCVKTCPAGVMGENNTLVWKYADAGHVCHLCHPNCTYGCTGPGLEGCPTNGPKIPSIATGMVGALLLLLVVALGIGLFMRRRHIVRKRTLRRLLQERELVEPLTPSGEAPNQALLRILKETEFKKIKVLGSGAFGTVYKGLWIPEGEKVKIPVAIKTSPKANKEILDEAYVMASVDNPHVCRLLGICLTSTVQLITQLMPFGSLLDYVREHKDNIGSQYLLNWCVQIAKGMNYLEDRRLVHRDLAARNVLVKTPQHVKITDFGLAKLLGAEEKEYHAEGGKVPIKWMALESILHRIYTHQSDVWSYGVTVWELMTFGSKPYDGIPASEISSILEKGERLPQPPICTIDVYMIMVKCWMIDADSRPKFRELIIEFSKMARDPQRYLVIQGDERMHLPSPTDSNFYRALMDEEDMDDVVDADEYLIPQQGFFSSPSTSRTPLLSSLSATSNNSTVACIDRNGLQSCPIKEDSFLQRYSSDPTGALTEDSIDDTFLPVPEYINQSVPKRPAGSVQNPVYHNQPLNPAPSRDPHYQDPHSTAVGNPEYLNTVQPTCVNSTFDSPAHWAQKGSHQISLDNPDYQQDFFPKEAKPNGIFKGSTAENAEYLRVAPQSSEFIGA
Method: as §1, §2

[5] = target: Ba/F3 cells overexpressing EGFR Del19/T790M/C797S (Homo sapiens, UniProt P00533, T790M/C797S, cells depend on it, form not given); experiment: Cell proliferation inhibitory activity assay, Ba/F3 EGFR Del19/T790M/C797S; details: cell proliferation inhibition, 72 hours, luminescence; read-out: Ba/F3 cells overexpressing different EGFR mutations IC50 (nM) Del19/T790M/C797S
Sequence of Ba/F3 cells overexpressing EGFR Del19/T790M/C797S (P00533 with tags, fused parts or gaps DEL746-750/T790M/C797S, form open): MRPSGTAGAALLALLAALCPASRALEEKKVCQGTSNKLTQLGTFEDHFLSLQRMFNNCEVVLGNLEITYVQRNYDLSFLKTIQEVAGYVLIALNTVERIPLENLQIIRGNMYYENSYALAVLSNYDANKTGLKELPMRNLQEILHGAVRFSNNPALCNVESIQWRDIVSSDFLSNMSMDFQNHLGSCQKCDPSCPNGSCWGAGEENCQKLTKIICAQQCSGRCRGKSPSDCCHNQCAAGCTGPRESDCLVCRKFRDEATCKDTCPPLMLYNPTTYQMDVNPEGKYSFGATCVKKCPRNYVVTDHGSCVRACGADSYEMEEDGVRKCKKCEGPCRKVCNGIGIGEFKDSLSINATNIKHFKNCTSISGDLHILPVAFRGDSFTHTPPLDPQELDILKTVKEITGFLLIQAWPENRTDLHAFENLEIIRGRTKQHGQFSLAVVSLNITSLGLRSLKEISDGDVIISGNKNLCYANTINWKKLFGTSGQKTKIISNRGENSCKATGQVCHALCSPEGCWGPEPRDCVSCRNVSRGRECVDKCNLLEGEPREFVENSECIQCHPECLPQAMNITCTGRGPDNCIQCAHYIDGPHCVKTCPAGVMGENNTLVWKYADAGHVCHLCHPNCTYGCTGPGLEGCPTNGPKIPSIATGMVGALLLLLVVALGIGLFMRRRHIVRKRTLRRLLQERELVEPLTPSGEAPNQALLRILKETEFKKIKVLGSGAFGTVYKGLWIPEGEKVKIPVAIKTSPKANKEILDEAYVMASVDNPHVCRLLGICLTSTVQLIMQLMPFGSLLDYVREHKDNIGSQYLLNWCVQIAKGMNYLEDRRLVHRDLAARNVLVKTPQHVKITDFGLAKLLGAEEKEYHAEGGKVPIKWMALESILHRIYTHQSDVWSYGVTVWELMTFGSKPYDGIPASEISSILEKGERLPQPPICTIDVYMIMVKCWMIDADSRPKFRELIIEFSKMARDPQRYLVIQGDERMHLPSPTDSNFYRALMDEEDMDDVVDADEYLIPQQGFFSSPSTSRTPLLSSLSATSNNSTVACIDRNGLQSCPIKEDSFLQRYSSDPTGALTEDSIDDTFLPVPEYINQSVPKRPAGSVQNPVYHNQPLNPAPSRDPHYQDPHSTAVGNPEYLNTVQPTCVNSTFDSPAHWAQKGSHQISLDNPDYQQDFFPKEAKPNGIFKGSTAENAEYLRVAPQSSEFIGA
Method: as §1, §2

IC50 [1] [nM] | GI50 [2] [nM] | GI50 [3] [nM] | GI50 [4] [nM] | GI50 [5] [nM] | SMILES
226 | 11 | 3.7 | 4.5 | 1.6 | Cc1cc2cc(n1)-c1cnccc1OCCCC(C)(C)Cn1c(nc3ccc(N4CCC5(CCN(C)CC5)CC4)cc31)NC2=O [Example 7, 2^6,9,9-trimethyl-5^6-(9-methyl-3,9-diazaspiro[5.5]undecan-3-yl)-5^1H-11-oxa-4-aza-5(2,1)-benzo[d]imidazola-1(3,4),2(2,4)-dipyridinacycloundecaphan-3-one]
425 | 3.6 | 1.1 | 0.77 | 0.73 | Cc1cc2cc(n1)-c1cnc(F)cc1OCCC[C@@H](C)Cn1c(nc3ccc(N4CCC5(CCNCC5)CC4)cc31)NC2=O [Example 9, (R)-1^6-fluoro-2^6,7-dimethyl-5^6-(3,9-driazaspiro[3.5]undecan-3-yl)-5^1-11-oxa-4-aza-5(2,1)-benzo[d]imidazola-1(3,4),2(2,4)-dipyridinacycloundecaphan-3-one]
493 | 1 | 3.4 | 0.15 | 2.2 | Cc1cc2cc(n1)-c1cnccc1OCCC[C@@H](C)Cn1c(nc3cc(C)c(N4CCC5(CCN(C)CC5)CC4)cc31)NC2=O [Example 11, (R)-2^6,5^3,7-trimethyl-5^6-(9-methyl-3,9-diazaspiro[5.5]undecan-3-yl)-5^1H-11-oxa-4-aza-5(2.I)-benzo[d]imidazola-1(3,4),2(2,4)-dipyridinacycloundecaphan-3-one]
805 | 1.8 | 1.5 | 0.18 | 0.37 | Cc1cc2cc(n1)-c1cnccc1OCCCCCn1c(nc3cc(F)c(N4CCC5(CCN(C)CC5)CC4)cc31)NC2=O [Example 14, 5^5-fluoro-2^6-methyl-5^6-(9-methyl-3,9-diazaspiro[5.5]undecan-3-yl)-5^1H-11-oxa-4-aza-5(2,1)-benzo[d]imidazola-1(3,4),2(2,4)-dipyridinacycloundecaphan-3-one]
1470 | 18 | 4.7 | 5 | 1.2 | COCCCN1CCC2(CC1)CCN(c1ccc3nc4n(c3c1)C[C@H](C)CCCOc1cc(F)ncc1-c1cc(cc(C)n1)C(=O)N4)CC2 [Example 17, 1^6-fluoro-5^6-(9-(3-methoxypropyl)-3,9-diazaspiro[5.5]undecan-3-yl)-2^6-methyl-5^1H-11-oxa-4-aza-5(2,1)-benzo[d]imidazola-1(3,4),2(2,4)-dipyridinacycloundecaphan-3-one]
631 | 3.9 | 2.1 | 0.5 | 0.77 | Cc1cc2cc(n1)-c1cnccc1OCCCCCn1c(nc3ccc(N4CCC5(CCN(CCC(N)=O)CC5)CC4)cc31)NC2=O [Example 18, 3-(9-(2^6-methyl-3-oxo-5^1H-11-oxa-4-aza-5(2,1)-benzo[d]imidazola-1(3,4),2(2,4)-dipyridinacycloundecaphane-5^6-yl)-3,9-diazaspiro[5.5]undecan-3-yl)propanamide]
701 | 2.1 | 3.7 | 0.27 | 1.6 | Cc1cc2cc(n1)-c1cnccc1OCCC[C@@H](C)Cn1c(nc3ccc(N4CCC5(CC4)CCN(C4CC4)CC5)cc31)NC2=O [Example 45, (R)-5^6-(9-cyclopropyl-3,9-diazaspiro[5.5]undecan-3-yl)-2^6,7-dimethyl-5^1H-11-oxa-4-aza-5(2,1)-benzo [d]imidazola-1(3,4),2(2,4)-dipyridinacyclo-undecaphan-3-one]
1080 | 3 | 1.8 | 0.29 | 0.91 | Cc1cc2cc(n1)-c1cnccc1OCCCCCn1c(nc3cc(F)c(N4CCC5(CCN(CCF)CC5)CC4)cc31)NC2=O [Example 61, 5^5-fluoro-5^6-(9-(2-fluoroethyl)-3,9-diazaspiro [5.5]undecan-3-yl)-2^6-methyl-5^1H-11-oxa-4-aza-5(2,1)-benzo [d]imidazola-1(3,4),2(2,4)-dipyridinacyclo-undecaphan-3-one]
772 | 3.8 | 3 | 0.57 | 0.95 | Cc1cc2cc(n1)-c1cnccc1OCCCCCn1c(nc3cc(F)c(N4CCC5(CCN(CC6COC6)CC5)CC4)cc31)NC2=O [Example 62, 5^5-fluoro-2^6-methyl-5^6-(9-(oxetan-3-ylmethyl)-3,9-diazaspiro [5.5]undecan-3-yl)-5^1H-11-oxa-4-aza-5(2,1)-benzo[d] imidazola-1(3,4),2(2,4)-dipyridinacyclo-undecaphan-3-one]
472 | 2 | 1.5 | 0.67 | 0.5 | Cc1cc2cc(n1)-c1cnccc1OCCCCCn1c(nc3cc(F)c(N4CCC5(CC4)CCN(C4COC4)CC5)cc31)NC2=O [Example 63, 5^5-fluoro-2^6-methyl-5^6-(9-(oxetan-3-yl)-3,9-diazaspiro[5.5]undecan-3-yl)-5^1H-11-oxa-4-aza-5(2,1)-benzo [d]imidazola-1(3,4),2(2,4)-dipyridinacyclo-undecaphan-3-one]
1250 | 4.6 | 2.3 | 0.69 | 1.1 | Cc1cc2cc(n1)-c1cnccc1OCCCCCn1c(nc3cc(F)c(N4CCC5(CC4)CCN(C4CC4)CC5)cc31)NC2=O [Example 65, 5^6-(9-cyclopropyl-3,9-diazasptro [5.5]undecan-3-yl)-5^5-fluoro-2^6-methyl-5^1H-11-oxa-4-aza-5(2,1)-benzo [d]imidazola-1(3,4),2(2,4)-dipyridinacyclo-undecaphan-3-one]
646 | 0.07 | 0.08 | 0.11 | 0.07 | COCCN1CCC2(CC1)CCN(c1ccc3nc4n(c3c1)CCCCCOc1ccncc1-c1cc(cc(C)n1)C(=O)N4)CC2 [Example 75, 5^6-(9-(2-methoxy-ethyl)-3,9-diazaspiro[5.5]undecan-3-yl)-2^6-methyl-5^1H-11-oxa-4-aza-5(2,1)-benzo[d] imidazola-1(3,4), 2(2,4)-dipyridinacyclo-undecaphan-3-one]
770 | 17 | 12 | 2.9 | 4.7 | Cc1cc2cc(n1)-c1cnccc1OCCC[C@@H](C)Cn1c(nc3ccc(N4CCC5(CC4)CCN(C4COC4(C)C)CC5)cc31)NC2=O (stereo partly drawn) [Example 82, (7R)-5^6-(9-(2,2-dimethyloxetan-3-yl)-3,9-diazaspiro[5.5]undecan-3-yl)-2^6,7-dimethyl-5^1H-11-oxa-4-aza-5(2,1)-benzo [d]imidazola-1(3,4),2(2,4)-dipyridinacyclo-undecaphan-3-one]
294 | 2 | 2 | 0.27 | 1.3 | Cc1cc2cc(n1)-c1cnccc1OCCC[C@@H](C)Cn1c(nc3ccc(N4CCC5(CC4)CCN(C4COC4C)CC5)cc31)NC2=O (stereo partly drawn) [Example 83, (7R)-2^6,7-dimethyl-5^6-(9-(2-methyloxetan-3-yl)-3,9-diazaspiro [5.5]undecan-3-yl)-5^1H-11-oxa-4-aza-5(2,1)-benzo[d] imidazola-1(3,4),2(2,4)-dipyridinacyclo-undecaphan-3-one]
1410 | 21 | 11 | 5.8 | 5.4 | Cc1cc2cc(n1)-c1cnccc1OCCCCCn1c(nc3ccc(N4CCC5(CCN(CCN(C)C)CC5)CC4)cc31)NC2=O [Example 87, 5^6-(9-(2-(dimethyl-amino)ethyl)-3,9-diazaspiro [5.5]undecan-3-yl)-2^6-methyl-5^1H-11-oxa-4-aza-5(2,1)-benzo [d]imidazola-1(3,4),2(2,4)-dipyridinacyclo-undecaphan-3-one]
1210 | 6.5 | 4.6 | 0.71 | 1.8 | Cc1cc2cc(n1)-c1cnccc1OCCCCCn1c(nc3ccc(N4CCC5(CC4)CCN(C4CC4)CC5)cc31)NC2=O [Example 89, 5^6-(9-cyclopropyl-3,9-diazaspiro [5.5]undecan-3-yl)-2^6-methyl-5^1H-11-oxa-4-aza-5(2,1)-benzo[d] imidazola-1(3,4),2(2,4)-dipyridinacyclo-undecaphan-3-one]
